Measured values as given in US20130190223A1, “NONIMMUNOSUPPRESSIVE CYCLOSPORINE ANALOGUE MOLECULES” (ISOTECHNIKA PHARMA INC., priority 2008, published 2013).

How the values were obtained:
[1] = target: T1, CyP-D (Rattus norvegicus, UniProt P29117); type: biochemical; details: mitochondria isolated from rat liver, 190 μM calcium, swelling as decline in A540
T1 construct: Mitochondria were isolated from fresh rat liver; from tissue; host or cells: rat liver mitochondria
Source text: A mitochondria swelling assay was used to measure the efficacy of NICAMs in blocking CyP-D and mitochondrial permeability transition. Under certain pathological conditions, mitochondria lose the ability to regulate calcium levels, and excessive calcium accumulation in the mitochondrial matrix results in the opening of large pores in the inner mitochondrial membrane. Nonselective conductance of ions and molecules up to 1.5 kilodaltons through the pore, a process called mitochondrial permeability transition, leads to swelling of mitochondria and other events which culminate in cell death. […] In general, mitochondria isolated from rat liver were exposed to calcium to induce MPTP opening in the absence or presence of test compounds, and calcium-induced swelling was measured as a reduction in light absorbance at 540 nm.
Mitochondria were isolated from fresh rat liver. Ice-cold or 4° C. conditions were used throughout all steps of the isolation. The liver was rinsed thoroughly and chopped in a small volume of isolation buffer (IB; 10 mM Hepes, 70 mM sucrose, 210 mM mannitol, 0.5 mM EDTA). Aliquots of the minced liver were homogenized in IB using a Teflon-glass Potter-Elvehjem tissue grinder and passed through a cell screen filter. The filtered homogenate was centrifuged at 600 g for 10 min, then the resulting supernatant centrifuged at 7000 g for 10 min. The supernatant was discarded, and the pellet resuspended in wash buffer (10 mM Hepes, 70 mM sucrose, 210 mM mannitol) and centrifuged a final time at 7000 g for 10 min. The supernatant was discarded, and the mitochondria-containing pellet suspended and stored on ice in 2 mL of respiration buffer (RB; 5 mM Hepes, 70 mM sucrose, 210 mM mannitol, 10 mM sodium succinate, 1 mM sodium phosphate dibasic).
Test compound solutions were prepared from 10 mg/ml stocks (dimethyl sulfoxide vehicle) first by diluting the test compound 1000× into respiration buffer #2 (RB2; 5 mM Hepes, 70 mM sucrose, 210 mM mannitol, 10 mM sodium succinate, 1 mM sodium phosphate dibasic, 1% fetal bovine serum, 2 μM rotenone), then by 3×-serial dilutions in RB2 to achieve test compound concentrations of 10000, 3333, 1111, 370, 123, 41, and 14 ng/mL. Polystyrene tubes and plates were used for all preparations.
Swelling assays were completed in a 96-well flat-bottom polystyrene plates. In each well a 10-μL aliquot of mitochondria suspension, equivalent to 100-200 μg total protein, was combined with 90 μL of test compound, incubated for 10 min, then the baseline absorbance measured on a plate reader (540 nm wavelength; A540). Swelling was induced by adding 5 μL of 4 mM calcium chloride to achieve a final calcium concentration of 190 μM. Mitochondria swelling was indicated by a decline in A540. […] Duplicate samples were assayed for each test compound concentration.
Means and ranges of duplicate samples are shown.

[2] = tested on: human lymphocytes; assay: Immunosuppressive potency: inhibition of proliferation of anti-CD3 stimulated human lymphocytes (CFSE, flow cytometry); type: cell-based; details: relative potency: IC50 for inhibition of cell division normalized to CsA, 3 days incubation
Protocol: The immunosuppressive potency of test compounds was assessed by measuring their ability to inhibit the proliferation of human lymphocytes in cell culture. Lymphocytes were isolated from blood of normal human volunteers by Ficoll-gradient centrifugation and stained with 2 μg/ml carboxyfluoroscein diacetate succinimydyl ester (CFSE), a fluorescent cell division tracer molecule. Cells were stimulated through the CD3/T-cell receptor by seeding cells at 300,000/well into 96-well flat-bottom, high-binding plates coated with 1 μg/ml UCHT-1 anti-human CD3 antibody. Test compounds were prepared first as 10 mg/ml stock solutions in dimethylsulfoxide (DMSO). Test solutions were prepared by 500-fold dilution of the DMSO stock solutions, then 3-fold serial dilutions in cell culture medium (RPMI+5% FBS+penicillin-steptomycin) for a total of 7 concentrations per compound. Test solutions were added in equal volume to the culture wells containing cells to achieve final concentrations after dilution of 13.7 ng/ml-10,000 ng/ml. […] Following 3 days incubation cells were stained with CD95-APC (lymphocyte activation marker) and analyzed by flow cytometry with a Becton Dickinson FACSCalibur. Percentage cell division was assessed in forward/side-scatter-gated lymphocytes by measuring the proportion of cells that underwent one or more cell divisions as determined by serial halving of CFSE intensity. The nondivided parent population was determined from samples maintained in culture without anti-CD3 stimulation. IC50 values for inhibition of cell division were determined by nonlinear regression analysis. […]

T1 sequence (P29117 30-206): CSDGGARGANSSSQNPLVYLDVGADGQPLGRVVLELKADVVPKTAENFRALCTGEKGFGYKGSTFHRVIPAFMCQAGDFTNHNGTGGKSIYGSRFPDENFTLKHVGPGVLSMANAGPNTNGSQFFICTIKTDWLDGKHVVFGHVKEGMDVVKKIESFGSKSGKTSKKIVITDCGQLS

SMILES	CYP-D Inhibition (% Potency Vs CsA) [1] [%]	Immunosuppression (% Relative to CsA) [2] [%]
CCCC=CCC(C)C(O)C1C(=O)NC(CC)C(=O)N(C)CC(=O)N(C)C(CC(C)C)C(=O)NC(C(C)C)C(=O)N(C)C(CC(C)C)C(=O)NC(C)C(=O)NC(C)C(=O)N(C)C(CC(C)C)C(=O)N(C)C(CC(C)C)C(=O)N(C)C(C(C)C)C(=O)N1C (stereo not shown) [Compound 404-26]	58.4	
CCCCCCCC=CCC(C)C(O)C1C(=O)NC(CC)C(=O)N(C)CC(=O)N(C)C(CC(C)C)C(=O)NC(C(C)C)C(=O)N(C)C(CC(C)C)C(=O)NC(C)C(=O)NC(C)C(=O)N(C)C(CC(C)C)C(=O)N(C)C(CC(C)C)C(=O)N(C)C(C(C)C)C(=O)N1C (stereo not shown) [Compound 404-44]	1.2	1
CCC1NC(=O)C(C(O)C(C)CCCCC(=O)N(CC)CC)N(C)C(=O)C(C(C)C)N(C)C(=O)C(CC(C)C)N(C)C(=O)C(CC(C)C)N(C)C(=O)C(C)NC(=O)C(C)NC(=O)C(CC(C)C)N(C)C(=O)C(C(C)C)NC(=O)C(CC(C)C)N(C)C(=O)CN(C)C1=O (stereo not shown) [Compound 404-85]	128.7	2
CCC1NC(=O)C(C(O)C(C)CCCC(C)O)N(C)C(=O)C(C(C)C)N(C)C(=O)C(CC(C)C)N(C)C(=O)C(CC(C)C)N(C)C(=O)C(C)NC(=O)C(C)NC(=O)C(CC(C)C)N(C)C(=O)C(C(C)C)NC(=O)C(CC(C)C)N(C)C(=O)CN(C)C1=O (stereo not shown) [Compound 404-98]	162.7	3
CCC1NC(=O)C(C(O)C(C)CC(O)CO)N(C)C(=O)C(C(C)C)N(C)C(=O)C(CC(C)C)N(C)C(=O)C(CC(C)C)N(C)C(=O)C(C)NC(=O)C(C)NC(=O)C(CC(C)C)N(C)C(=O)C(C(C)C)NC(=O)C(CC(C)C)N(C)C(=O)CN(C)C1=O (stereo not shown) [Compound 404-126]	24.6	<1
CCC1NC(=O)C(C(O)C(C)CCCCC(N)=O)N(C)C(=O)C(C(C)C)N(C)C(=O)C(CC(C)C)N(C)C(=O)C(CC(C)C)N(C)C(=O)C(C)NC(=O)C(C)NC(=O)C(CC(C)C)N(C)C(=O)C(C(C)C)NC(=O)C(CC(C)C)N(C)C(=O)CN(C)C1=O (stereo not shown) [Compound 404-130]	114.7	<1
CCC1NC(=O)C(C(O)C(C)CCCCC(=O)N(C)C)N(C)C(=O)C(C(C)C)N(C)C(=O)C(CC(C)C)N(C)C(=O)C(CC(C)C)N(C)C(=O)C(C)NC(=O)C(C)NC(=O)C(CC(C)C)N(C)C(=O)C(C(C)C)NC(=O)C(CC(C)C)N(C)C(=O)CN(C)C1=O (stereo not shown) [Compound 404-132]	122.0	<1
CCC1NC(=O)C(C(O)C(C)CC=CCCCCC(=O)N(C)C)N(C)C(=O)C(C(C)C)N(C)C(=O)C(CC(C)C)N(C)C(=O)C(CC(C)C)N(C)C(=O)C(C)NC(=O)C(C)NC(=O)C(CC(C)C)N(C)C(=O)C(C(C)C)NC(=O)C(CC(C)C)N(C)C(=O)CN(C)C1=O (stereo not shown) [Compound 404-154]	119.4	2
CCC1NC(=O)C(C(O)C(C)CC=CCCCC(=O)N(C)C)N(C)C(=O)C(C(C)C)N(C)C(=O)C(CC(C)C)N(C)C(=O)C(CC(C)C)N(C)C(=O)C(C)NC(=O)C(C)NC(=O)C(CC(C)C)N(C)C(=O)C(C(C)C)NC(=O)C(CC(C)C)N(C)C(=O)CN(C)C1=O (stereo not shown) [Compound 404-156]	82.2	1
CCC1NC(=O)C(C(O)C(C)CC=CCCC(=O)N(C)C)N(C)C(=O)C(C(C)C)N(C)C(=O)C(CC(C)C)N(C)C(=O)C(CC(C)C)N(C)C(=O)C(C)NC(=O)C(C)NC(=O)C(CC(C)C)N(C)C(=O)C(C(C)C)NC(=O)C(CC(C)C)N(C)C(=O)CN(C)C1=O (stereo not shown) [Compound 404-157]	142.3	<1
CCC1NC(=O)C(C(O)C(C)CC=CCCCCC(=O)N2CCOCC2)N(C)C(=O)C(C(C)C)N(C)C(=O)C(CC(C)C)N(C)C(=O)C(CC(C)C)N(C)C(=O)C(C)NC(=O)C(C)NC(=O)C(CC(C)C)N(C)C(=O)C(C(C)C)NC(=O)C(CC(C)C)N(C)C(=O)CN(C)C1=O (stereo not shown) [Compound 404-162]	91.1	<1
CCC1NC(=O)C(C(O)C(C)CC=CCCCCC(N)=O)N(C)C(=O)C(C(C)C)N(C)C(=O)C(CC(C)C)N(C)C(=O)C(CC(C)C)N(C)C(=O)C(C)NC(=O)C(C)NC(=O)C(CC(C)C)N(C)C(=O)C(C(C)C)NC(=O)C(CC(C)C)N(C)C(=O)CN(C)C1=O (stereo not shown) [Compound 404-164]	98.9	
CCCNC(=O)CCC=CCC(C)C(O)C1C(=O)NC(CC)C(=O)N(C)CC(=O)N(C)C(CC(C)C)C(=O)NC(C(C)C)C(=O)N(C)C(CC(C)C)C(=O)NC(C)C(=O)NC(C)C(=O)N(C)C(CC(C)C)C(=O)N(C)C(CC(C)C)C(=O)N(C)C(C(C)C)C(=O)N1C (stereo not shown) [Compound 404-178]	71.3	<1
CCC1NC(=O)C(C(O)C(C)CC=CCCC#N)N(C)C(=O)C(C(C)C)N(C)C(=O)C(CC(C)C)N(C)C(=O)C(CC(C)C)N(C)C(=O)C(C)NC(=O)C(C)NC(=O)C(CC(C)C)N(C)C(=O)C(C(C)C)NC(=O)C(CC(C)C)N(C)C(=O)CN(C)C1=O (stereo not shown) [Compound 404-194]	123.2	2
CCC(O)CCCC(C)C(O)C1C(=O)NC(CC)C(=O)N(C)CC(=O)N(C)C(CC(C)C)C(=O)NC(C(C)C)C(=O)N(C)C(CC(C)C)C(=O)NC(C)C(=O)NC(C)C(=O)N(C)C(CC(C)C)C(=O)N(C)C(CC(C)C)C(=O)N(C)C(C(C)C)C(=O)N1C (stereo not shown) [Compound 404-195]	143.1	2
CCC1NC(=O)C(C(O)C(C)CCCO)N(C)C(=O)C(C(C)C)N(C)C(=O)C(CC(C)C)N(C)C(=O)C(CC(C)C)N(C)C(=O)C(C)NC(=O)C(C)NC(=O)C(CC(C)C)N(C)C(=O)C(C(C)C)NC(=O)C(CC(C)C)N(C)C(=O)CN(C)C1=O (stereo not shown) [Compound 420-28]	78.0	<1
C=CCC(O)CCCC(C)C(O)C1C(=O)NC(CC)C(=O)N(C)CC(=O)N(C)C(CC(C)C)C(=O)NC(C(C)C)C(=O)N(C)C(CC(C)C)C(=O)NC(C)C(=O)NC(C)C(=O)N(C)C(CC(C)C)C(=O)N(C)C(CC(C)C)C(=O)N(C)C(C(C)C)C(=O)N1C (stereo not shown) [Compound 420-49-1]	143.6	3
CCC1NC(=O)C(C(O)C(C)CC=CCCCCCCCCCC(=O)N(C)C)N(C)C(=O)C(C(C)C)N(C)C(=O)C(CC(C)C)N(C)C(=O)C(CC(C)C)N(C)C(=O)C(C)NC(=O)C(C)NC(=O)C(CC(C)C)N(C)C(=O)C(C(C)C)NC(=O)C(CC(C)C)N(C)C(=O)CN(C)C1=O (stereo not shown) [Compound 420-104]	55.8	11
CCC1NC(=O)C(C(O)C(C)CCCCCCCCO)N(C)C(=O)C(C(C)C)N(C)C(=O)C(CC(C)C)N(C)C(=O)C(CC(C)C)N(C)C(=O)C(C)NC(=O)C(C)NC(=O)C(CC(C)C)N(C)C(=O)C(C(C)C)NC(=O)C(CC(C)C)N(C)C(=O)CN(C)C1=O (stereo not shown) [Compound 420-112]	106.7	2
CCC1NC(=O)C(C(O)C(C)CCCCCCCCCNC(=O)OC(C)(C)C)N(C)C(=O)C(C(C)C)N(C)C(=O)C(CC(C)C)N(C)C(=O)C(CC(C)C)N(C)C(=O)C(C)NC(=O)C(C)NC(=O)C(CC(C)C)N(C)C(=O)C(C(C)C)NC(=O)C(CC(C)C)N(C)C(=O)CN(C)C1=O (stereo not shown) [Compound 420-125]	42.4	
